Data as given in patent US10213451B2, “Methods and compounds for modulating the secretion or expression of adhesion proteins or angiopoietins of cells” (PACIFIC ARROW LIMITED, priority 2004, dated 2019).
Values after ≈ are worked out from the molar mass of the structure shown.

Assays:
Format in all cases: cell-based, human
ES2(ovarian) cells = test: MTT assay ES2; settings: Homo sapiens, ES-2, ES2 cells; read-out: IC50
[1] = test system: collagen expression in ES2 cells; test: Microarray gene expression, Table 5
Experimental: (§1) Y/D is the ratio (in folds) of gene expression in cells treated with compound Y as compared with those of the no drug control (D),
(§2) YM/D is the ratio of gene expression in cells treated with compound YM (ACH-Y, Y without sugar moiety) compared with those of the no drug control (D)
(§3) Cell culture and drug-treatment.: ES2 cells were seeded in a T-25 flask with 4.5 million cells per flask for 24 hours. Cell culture was replaced with fresh medium with xanifolia-Y (Y) or DMSO no drug control (D) for 24 hours. Cells were then harvested for RNA isolation. Three experiments were done.
RNA extraction, labeling, hybridization, and data analysis. RNA was extracted from tumor cells using the Qiagen RNeasy Kit. RNA quality and quantity was checked by the Agilent BioAnalyzer and the NanoDrop® ND-1000 spectrophotometer respectively before further manipulation. The first and second cDNA strands were synthesized from 20 ng of total RNA using the Affymetrix T7 oligo(dT) primer protocol and kit for the two-cycle amplification. To produce amplified biotin-labeled-cRNA, the cDNA was […] by in vitro transcription using the MegaScript kit from Ambion. 15.0 μg of the labeled cRNA was fragmented and re-checked for concentration using the NanoDrop® ND-1000 spectrophotometer. A hybridization cocktail containing Affymetrix spike-in controls and fragmented labeled cRNA was loaded onto the Human U133 Plus 2.0 GeneChip® oligonucleotide array. The Affymetrix array (Affymetrix, Inc. Santa Clara, Calif.) is comprised of over 1,300,000 unique oligonucleotide features that represent greater than 38,500 well-substantiated human genes. The array was hybridized for 16 hours at 45° C. with rotation at 60 rpm then washed and stained with a strepavidin, R-phycoerythrin conjugate stain on the Affymetrix Fluidicis Station 450. Signal amplification was done using biotinylated antistreptavidin. The arrays were scanned using the GeneChip® 3000 confocal laser scanner with autoloader. The images were analyzed and quality control metrics recorded using Affymetrix GCOS software version 1.4. Lastly, the expression value for each gene was calculated using dChip PM-only model based or Plier algorithm.
Pairwise comparisons were made as follows: Treated vs. Control (Y vs. D), Modified Drug vs Control (YM/ACY-H vs. D) and Treated vs. Modified Drug (Y vs. YM/ACH-Y) Cel files analyzed using the Bioconductor package of R Statistical programming. Limma analysis generated a reasonable number of changing genes between the samples.
The raw data in the .CEL files were normalized by the GCRMA method (robust multi-array analysis). It is implemented in Bioconductor (http://www.bioconductor.org/). The raw signal intensity data were normalized, background corrected and summarized based on certain statistical models, and an expression value, in log 2-scale, is obtained per chip per probe set. Then the null hypothesis was tested that there's no significant changes in gene expression between the treatment pairs. This was done by LIMMA and is also implemented in Bioconductor. It uses empirical Bayes method to estimate the variance in gene expression. One comparison was made, namely, High Grade vs. Low Grade. The raw p-values were adjusted by the Benjamnin-Hochberg method for false discovery rate (FDR) control. All data sets contained a significant number of genes with a p-value less than 0.05, which is that the probability that a gene is NOT differential expressed (false positive) is 1:20.

[2] = test system: tenascin-C expression in ES2 cells; test: Microarray gene expression, Table 9; settings: probe 201645_at
Experimental: as §1, §2, §3
RNA extraction, labeling, hybridization, and data analysis. RNA was extracted from tumor cells using the Qiagen RNeasy Kit. RNA quality and quantity was checked by the Agilent BioAnalyzer and the NanoDrop® ND-1000 spectrophotometer respectively before further manipulation. […] The images were analyzed and quality control metrics recorded using Affymetrix GCOS software version 1.4. Lastly, the expression value for each gene was calculated using dChip PM-only model based or Plier algorithm.
Pairwise comparisons were made as follows: Treated vs. Control (Y vs. D), Modified Drug vs Control (YM/ACY-H vs. D) and Treated vs. Modified Drug (Y vs. YM/ACH-Y) Cel files analyzed using the Bioconductor package of R Statistical programming. […]

Q: What does the source list for C/C=C(/C)C(=O)O[C@H]1[C@H](OC(=O)/C(C)=C\C)[C@@]2(CO)C(CC1(C)C)C1=CCC3[C@@]4(C)CC[C@H](O)C(C)(C)C4CC[C@@]3(C)[C@]1(C)[C@@H](O)[C@H]2O (stereo partly drawn) [ACH-Y]?
A: IC50 (ES2(ovarian) cells): 20 µg/mL (≈ 29.8 µM); P4HB procollagen-proline, 2-oxoglutarate 4-dioxygenase, beta polypeptide, gene expression ratio to no drug control (D) ([1]; probe 200654_at): −1.3 folds; P4HB procollagen-proline, 2-oxoglutarate 4-dioxygenase, beta polypeptide, gene expression ratio to no drug control (D) ([1]; probe 200656_s_at): −1.2 folds; PLOD1 procollagen-lysine 1,2-oxoglutarate 5-dioxygenase 1, gene expression ratio to no drug control (D) ([1]; probe 200827_at): −1.2 folds; COL6A3 collagen, type VI, alpha 3, gene expression ratio to no drug control (D) ([1]; probe 201438_at): −1.5 folds; PLOD3 procollagen-lysine, 2-oxoglutarate 5-dioxygenase 3, gene expression ratio to no drug control (D) ([1]; probe 202185_at): −1.1 folds; COL1A1 collagen, type I, alpha 1, gene expression ratio to no drug control (D) ([1]; probe 202311_s_at): −3.6 folds; PCOLCE procollagen C-endopeptidase enhancer, gene expression ratio to no drug control (D) ([1]; probe 202465_at): −1.6 folds; PLOD2 procollagen-lysine, 2-oxoglutarate 5-dioxygenase 2, gene expression ratio to no drug control (D) ([1]; probe 202619_s_at): −1.2 folds; PLOD2 procollagen-lysine, 2-oxoglutarate 5-dioxygenase 2, gene expression ratio to no drug control (D) ([1]; probe 202620_s_at): −1.3 folds; P4HA2 procollagen-proline, 2-oxoglutarate 4-dioxygenase, alpha polypeptide II, gene expression ratio to no drug control (D) ([1]; probe 202733_at): −1.9 folds; COL5A1 collagen, type V, alpha 1, gene expression ratio to no drug control (D) ([1]; probe 203325_s_at): −2.8 folds; P4HA1 procollagen-proline, 2-oxoglutarate 4-dioxygenase, alpha polypeptide I, gene expression ratio to no drug control (D) ([1]; probe 207543_s_at): −1.5 folds; COL13A1 collagen, type XIII, alpha 1, gene expression ratio to no drug control (D) ([1]; probe 208535_x_at): −1.2 folds; COL18A1 collagen, type XVIII, alpha 1, gene expression ratio to no drug control (D) ([1]; probe 209081_s_at): −1.5 folds; COL13A1 collagen, type XIII, alpha 1, gene expression ratio to no drug control (D) ([1]; probe 211343_s_at): −1.7 folds; COL13A1 collagen, type XIII, alpha 1, gene expression ratio to no drug control (D) ([1]; probe 211809_x_at): −1.5 folds; COL4A2 collagen, type IV, alpha 2, gene expression ratio to no drug control (D) ([1]; probe 211966_at): −1.7 folds; COL4A1 collagen, type IV, alpha 1, gene expression ratio to no drug control (D) ([1]; probe 211981_at): −2.2 folds; COL6A1 collagen, type VI, alpha 1, gene expression ratio to no drug control (D) ([1]; probe 212091_s_at): −1.9 folds; COL5A1 collagen, type V, alpha 1, gene expression ratio to no drug control (D) ([1]; probe 212489_at): −4.1 folds; COL4A5 collagen, type IV, alpha 5 (Alport syndrome), gene expression ratio to no drug control (D) ([1]; probe 213110_s_at): −2.2 folds; COL6A2 collagen, type VI, alpha 2, gene expression ratio to no drug control (D) ([1]; probe 213290_at): −1.5 folds; COL4A6 collagen, type IV, alpha 6, gene expression ratio to no drug control (D) ([1]; probe 213992_at): −1.9 folds; COL10A1 collagen, type X, alpha 1, gene expression ratio to no drug control (D) ([1]; probe 217428_s_at): −1.2 folds; COL5A2 collagen, type V, alpha 2, gene expression ratio to no drug control (D) ([1]; probe 221729_at): −1.8 folds; COL5A2 collagen, type V, alpha 2, gene expression ratio to no drug control (D) ([1]; probe 221730_at): −1.6 folds; COL12A1 collagen, type XII, alpha 1, gene expression ratio to no drug control (D) ([1]; probe 231766_s_at): −2.4 folds; CCBE1 collagen and calcium binding EGF domains 1, gene expression ratio to no drug control (D) ([1]; probe 242324_x_at): −1.8 folds; COL5A1 collagen, type V, alpha 1, gene expression ratio to no drug control (D) ([1]; probe 1556138_a_at): −2.8 folds; P4HA2 procollagen-proline, 2-oxoglutarate 4-dioxygenase, alpha polypeptide II, gene expression ratio to no drug control (D) ([1]; probe 1568611_at): −2.4 folds; expression ratio to the control, collagen ([1]; span over probes of Table 5): −1.1 to −3.6 folds; TNC Tenascin C (hexabrachion), gene expression ratio to no drug control (D) [2]: 1.0 folds
